Results: US9884818B2, “Sulphamoylpyrrolamide derivatives and the use thereof as medicaments for the treatment of hepatitis B” (Janssen Sciences Ireland UC, priority 2013, dated 2018)

How the values were obtained:
HBV [1] = test: Anti-HBV activity, HepG2.2.15 stable transfected cell line, HBV DNA from secreted virions by realtime PCR; assay type: cell-based; conditions: Hepatitis B virus, HepG2.2.15, 144 h, HepG2.2.15 cells, 6 days of treatment, HBV DNA from secreted virions; read-out: HepG2 2.15 EC50
[2] = Cytotoxicity in HepG2 cells, Resazurin viability assay; conditions: human, HepG2 cells, HepG2 4 days CC50 (μM), incubated for 4 days, Resazurin assay
HBV [3] = test: Anti-HBV activity, HepG2.117 inducibly HBV producing cell line (Tet-off), intracellular HBV DNA by realtime PCR; assay type: cell-based; conditions: Hepatitis B virus, HepG2.117, 72 h, HepG2.117 cells, 3 days of treatment, intracellular HBV DNA; read-out: HepG2 117 EC50

| SMILES | EC50 (HBV [1]) | CC50 at 4 days [2] | EC50 (HBV [3]) |
| --- | --- | --- | --- |
| Cn1cc(S(=O)(=O)NC2(C)COC2)cc1C(=O)Nc1cc(Cl)c(F)c(Cl)c1 [Compound 75, N-(3,5-Dichloro-4-fluorophenyl)-1-methyl-4-[(3-methyloxetan-3-yl)sulfamoyl]-1H-pyrrole-2-carboxamide] | 180 nM | > 25 µM | 180 nM |
| Cc1c(S(=O)(=O)N[C@@H](C)C(F)(F)F)cn(C)c1C(=O)Nc1ccc(F)c(C#N)c1 [Compound 151, N-(3-Cyano-4-fluorophenyl)-1,3-dimethyl-4-{[(1S)-2,2,2-trifluoro-1-methylethyl]sulfamoyl}-1H-pyrrole-2-carboxamide] | 80 nM | > 25 µM | 70 nM |
| Cc1cc(NC(=O)c2cc(S(=O)(=O)NC(C)(C)C(N)=O)cn2C)ccc1F [Compound 64, 4-[(2-amino-1,1-dimethyl-2-oxo-ethyl)sulfamoyl]-N-(4-fluoro-3-methyl-phenyl)-1-methyl-pyrrole-2-carboxamide] | 130 nM | > 25 µM | 50 nM |
| C[C@@H](NS(=O)(=O)c1cn(C)c(C(=O)Nc2cccc(C#N)c2)c1F)C(F)(F)F [Compound 180, N-(3-Cyanophenyl)-3-fluoro-1-methyl-4-{[(1R)-2,2,2-trifluoro-1-methylethyl]sulfamoyl}-1H-pyrrole-2-carboxamide] | 10 nM | > 25 µM | 20 nM |
| Cc1c(F)ccc(NC(=O)c2cc(S(=O)(=O)N[C@@H](C)C(F)(F)F)cn2C)c1F [Compound 119, N-(2,4-Difluoro-3-methylphenyl)-1-methyl-4-{[(1S)-2,2,2-trifluoro-1-methylethyl]sulfamoyl}-1H-pyrrole-2-carboxamide] | 30 nM | > 25 µM | 10 nM |
| Cc1cc(NC(=O)c2cc(S(=O)(=O)N[C@H]3CCOC3)cn2C)ccc1F [Compound 4, N-(4-fluoro-3-methyl-phenyl)-1-methyl-4-[[(3S)-tetrahydrofuran-3-yl]-sulfamoyl]pyrrole-2-carboxamide] | 100 nM | > 25 µM | 60 nM |
| CC[C@@H](NS(=O)(=O)c1cc(C(=O)Nc2ccc(F)c(C#N)c2)n(C)c1)C(F)(F)F [Compound 240, N-(3-Cyano-4-fluorophenyl)-1-methyl-4-{[(1R)-1-(trifluoromethyl)-propyl]sulfamoyl}-1H-pyrrole-2-carboxamide] | 20 nM | > 25 µM | 50 nM |
| CCC(CC)(NS(=O)(=O)c1cc(C(=O)Nc2ccc(F)c(Cl)c2F)n(C)c1)C(F)(F)F [Compound 259, N-(3-chloro-2,4-difluoro-phenyl)-4-[[1-ethyl-1-(trifluoromethyl)-propyl]sulfamoyl]-1-methyl-1H-pyrrole-2-carboxamide] | 50 nM | > 25 µM | 50 nM |
| CC(C)NS(=O)(=O)c1cc(C(=O)Nc2ccc(F)c(C#N)c2)n(C)c1 [Compound 175, N-(3-Cyano-4-fluorophenyl)-1-methyl-4-[(1-methylethyl)sulfamoyl]-1H-pyrrole-2-carboxamide] | 70 nM | > 25 µM | 130 nM |
| C[C@H](NS(=O)(=O)c1cc(C(=O)Nc2ccc(F)c(Cl)c2F)n(C)c1)C(F)(F)F [Compound 156, N-(3-Chloro-2,4-difluorophenyl)-1-methyl-4-{[(1S)-2,2,2-trifluoro-1-methylethyl]sulfamoyl}-1H-pyrrole-2-carboxamide] | 40 nM | > 25 µM | 30 nM |
| C[C@@H](NS(=O)(=O)c1cc(C(=O)Nc2ccc(F)c(F)c2)n(C)c1)C(F)(F)F [Compound 92, N-(3,4-Difluorophenyl)-1-methyl-4-{[(1R)-2,2,2-trifluoro-1-methylethyl]-sulfamoyl}-1H-pyrrole-2-carboxamide] | 40 nM | > 25 µM | 30 nM |
| C[C@H](NS(=O)(=O)c1cn(C)c(C(=O)Nc2ccc(F)c(C#N)c2)c1Cl)C(F)(F)F [Compound 225, 3-Chloro-N-(3-cyano-4-fluorophenyl)-1-methyl-4-{[(1S)-2,2,2-trifluoro-1-methylethyl]sulfamoyl}-1H-pyrrole-2-carboxamide] | 70 nM | > 25 µM | 70 nM |
| C[C@@H](NS(=O)(=O)c1cc(C(=O)Nc2cccc(C(F)(F)F)c2)n(C)c1)C(F)(F)F [Compound 122, 1-methyl-4-[[(1R)-2,2,2-trifluoro-1-methyl-ethyl]sulfamoyl]-N-[3-(trifluoromethyl)phenyl]pyrrole-2-carboxamide] | 70 nM | 13.1 µM | > 1000 nM |
| CC(C)NS(=O)(=O)c1cc(C(=O)Nc2cccc(Cl)c2F)n(C)c1 [Compound 173, N-(3-Chloro-2-fluorophenyl)-1-methyl-4-[(1-methylethyl)sulfamoyl]-1H-pyrrole-2-carboxamide] | 210 nM | > 25 µM | 320 nM |
| Cc1c(S(=O)(=O)NC2(C)COC2)cn(C)c1C(=O)Nc1ccc(F)c(F)c1 [Compound 148, N-(3,4-Difluorophenyl)-1,3-dimethyl-4-[(3-methyloxetan-3-yl)sulfamoyl]-1H-pyrrole-2-carboxamide] | 110 nM | > 25 µM | 70 nM |
| Cc1c(S(=O)(=O)NC2(C)COC2)cn(C)c1C(=O)Nc1cc(F)c(F)c(Cl)c1 [Compound 201, N-(3-Chloro-4,5-difluorophenyl)-1,3-dimethyl-4-[(3-methyloxetan-3-yl)sulfamoyl]-1H-pyrrole-2-carboxamide] | 70 nM | > 25 µM | 20 nM |
| CC(C)NS(=O)(=O)c1cn(C)c(C(=O)Nc2ccc(F)c(C#N)c2)c1C#N [Compound 216, 3-Cyano-N-(3-cyano-4-fluorophenyl)-1-methyl-4-[(1-methylethyl)sulfamoyl]-1H-pyrrole-2-carboxamide] | 180 nM | > 25 µM | 460 nM |
| Cn1cc(S(=O)(=O)NC2(C)COC2)c(F)c1C(=O)Nc1cc(F)c(F)cc1F [Compound 109, 3-Fluoro-1-methyl-4-[(3-methyloxetan-3-yl)sulfamoyl]-N-(2,4,5-trifluorophenyl)-1H-pyrrole-2-carboxamide] | 240 nM | > 25 µM | 100 nM |
| CC[C@H](NS(=O)(=O)c1cn(C)c(C(=O)Nc2ccc(F)c(C#N)c2)c1Cl)C(F)(F)F [Compound 289, 3-chloro-N-(3-cyano-4-fluoro-phenyl)-1-methyl-4-[[(15)-1-(trifluoro-methyl)propyl]sulfamoyl]pyrrole-2-carboxamide] | 40 nM | > 25 µM | 50 nM |
| C[C@H](NS(=O)(=O)c1cc(C(=O)Nc2ccc(F)c(C#N)c2)n(C)c1)C(F)(F)F [Compound 102, N-(3-Cyano-4-fluorophenyl)-1-methyl-4-{[(1S)-2,2,2-trifluoro-1-methylethyl]sulfamoyl}-1H-pyrrole-2-carboxamide] | 60 nM | > 25 µM | 60 nM |
| C[C@H](NS(=O)(=O)c1cc(C(=O)Nc2cc(F)c(F)c(Br)c2)n(C)c1)C(F)(F)F [Compound 100, N-(3-Bromo-4,5-difluorophenyl)-1-methyl-4-{[(1S)-2,2,2-trifluoro-1-methylethyl]sulfamoyl}-1H-pyrrole-2-carboxamide] | 60 nM | 12.2 µM | 50 nM |
| Cn1cc(S(=O)(=O)NC2(C(F)(F)F)CC2)cc1C(=O)Nc1cc(F)c(F)c(Cl)c1 [Compound 72, N-(3-chloro-4,5-difluoro-phenyl)-1-methyl-4-[[1-(trifluoromethyl)-cyclopropyl]sulfamoyl]pyrrole-2-carboxamide] | 10 nM | > 25 µM | 10 nM |
| Cn1cc(S(=O)(=O)NC(CF)CF)cc1C(=O)Nc1ccc(F)c(C#N)c1 [Compound 242, N-(3-Cyano-4-fluorophenyl)-4-{[2-fluoro-1-(fluoromethyl)ethyl]sulfamoyl}-1-methyl-1H-pyrrole-2-carboxamide] | 200 nM | > 25 µM | 300 nM |
| Cc1cc(NC(=O)c2cc(S(=O)(=O)N[C@H](C)CO)cn2C)ccc1F [Compound 3, N-(4-fluoro-3-methyl-phenyl)-4-[[(1R)-2-hydroxy-1-methyl-ethyl]sulfamoyl]-1-methyl-pyrrole-2-carboxamide] | 70 nM | > 25 µM | 100 nM |
| CC[C@@H](NS(=O)(=O)c1cn(C)c(C(=O)Nc2ccc(F)c(C#N)c2)c1F)C(F)(F)F [Compound 288, N-(3-cyano-4-fluoro-phenyl)-3-fluoro-1-methyl-4-[[(1R)-1-(trifluoro-methyl)propyl]sulfamoyl]pyrrole-2-carboxamide] | 7 nM | > 25 µM | 10 nM |
| CC(C)NS(=O)(=O)c1cn(C)c(C(=O)Nc2ccc(F)c(C#N)c2F)c1F [Compound 231, N-(3-Cyano-2,4-difluorophenyl)-3-fluoro-1-methyl-4-[(1-methyl-ethyl)sulfamoyl]-1H-pyrrole-2-carboxamide] | 40 nM | > 25 µM | 30 nM |
| Cc1cc(NC(=O)c2c(F)c(S(=O)(=O)NC3(C)COC3)cn2C)ccc1F [Compound 94, 3-Fluoro-N-(4-fluoro-3-methylphenyl)-1-methyl-4-[(3-methyloxetan-3-yl)sulfamoyl]-1H-pyrrole-2-carboxamide] | 9 nM | > 25 µM | 10 nM |
| Cn1cc(S(=O)(=O)NC2(C)CC2)cc1C(=O)Nc1ccc(F)c(C#N)c1 [Compound 244, N-(3-cyano-4-fluoro-phenyl)-1-methyl-4-[(1-methylcyclopropyl)-sulfamoyl]pyrrole-2-carboxamide] | 140 nM | > 25 µM | 530 nM |
